This note sets out measurements from the OPERA property sets (Mansouri et al. 2018).

SMILES strings stand for the structures. In brackets after ≈: the same amount, converted by molar mass.

Compound `O=[N+]([O-])c1ccc(O/N=C/c2cc(Br)c(O)c(Br)c2)c([N+](=O)[O-])c1` showed a solubility (20 °C) of 0.000217 mM (≈ 0.1 µg/mL). For `C=C1C[C@]23C[C@@]1(O)CC[C@H]2[C@@]12C=C[C@H](O)[C@@](C)(C(=O)O1)[C@H]2[C@@H]3C(=O)O`, the solubility stood at 14.4 mM (≈ 5000 µg/mL). On to `COP(=S)(OC)SCC(=O)N(c1ccc(Cl)cc1)C(C)C`, for which the solubility (20 °C) is 0.037 mM (≈ 13.6 µg/mL). Compound `CN1C(=O)[C@]23CC4=CC=C[C@H](O)[C@H]4N2C(=O)[C@@]1(CO)SS3` showed a solubility (30 °C) of 0.214 mM (≈ 70 µg/mL). For the compound `CNC(=O)Oc1c(C(C)(C)C)cc(C)cc1C(C)(C)C`, for the setting “25 °C”, the solubility turned out to be 0.0252 mM (≈ 7 µg/mL). Compound `CCCOC/C(=N\c1ccc(Cl)cc1C(F)(F)F)n1ccnc1` displayed a solubility (20 °C) of 36.1 mM (≈ 12500 µg/mL). On to `Cc1nc(C)c(Cl)c(O)c1Cl`, for which, for the setting “25 °C”, the solubility stood at 0.0521 mM (≈ 10 µg/mL). Still for that read-out and setting: under `CC(C)=CCl` stands 11 mM (≈ 1000 µg/mL). `O=S1(=O)OCC2C(CO1)C1(Cl)C(Cl)=C(Cl)C2(Cl)C1(Cl)Cl` (centres undefined): the solubility (20 °C) was 0.00114 mM (≈ 0.48 µg/mL).

`[Br-].[Br-].c1cc[n+]2c(c1)-c1cccc[n+]1CC2`: the solubility (20 °C) stood at 2060 mM. In the case of `CCSCCSP(=O)(OC)OC`, where the note is “20 °C”, the solubility came to 14.3 mM (≈ 3300 µg/mL).

Under “20 °C”, `N#C/C(=N\OCC1OCCO1)c1ccccc1` had a solubility of 0.0861 mM (≈ 20 µg/mL). Under “25 °C”, `COC(=O)C(C)Oc1ccc(Oc2ncc(C(F)(F)F)cc2Cl)cc1` (centres undefined) registered a solubility of 0.0248 mM (≈ 9.3 µg/mL). In turn, `O=C(O)COc1nc(Cl)c(Cl)cc1Cl` came in with a solubility (25 °C) of 1.72 mM (≈ 440 µg/mL). For `CC(O)COCc1c(Cl)ccc(Cl)c1Cl` (centres undefined), the solubility (25 °C) came to 0.271 mM (≈ 73 µg/mL). As to `COP(=S)(OC)Oc1ccc([N+](=O)[O-])c(C)c1`, the solubility (25 °C) was found to be 0.137 mM (≈ 38 µg/mL).

Compound `CNP(=O)(OC)Oc1ccc(C(C)(C)C)cc1Cl` (centres undefined) returned a solubility (25 °C) of 0.686 mM (≈ 200 µg/mL). Compared with the last compound, the solubility is about 5-fold higher. In turn, `CC(C)OP(=O)(OC(C)C)SCc1ccccc1` yielded a solubility (20 °C) of 1.39 mM (≈ 400 µg/mL). Where the note is “30 °C”, `CCC(C)N(C(=O)SCc1ccccc1)C(C)CC` (centres undefined) yielded a solubility of 0.00895 mM (≈ 2.5 µg/mL). As to `C#CC(C)N(C(=O)CCl)c1ccccc1` (centres undefined), the solubility (20 °C) worked out at 2.26 mM (≈ 500 µg/mL). In other words, the millimolar range. Compound `CN(C)C(=O)Nc1cc(C(C)(C)C)on1` registered a solubility (25 °C) of 3.74 mM (≈ 790 µg/mL). Compound `COC(=O)C(C)N(C(=O)c1ccccc1)c1ccc(F)c(Cl)c1` (centres undefined) had a solubility (23 °C) of 0.0857 mM (≈ 28.8 µg/mL). Compound `CCNc1nc(OC)nc(N(CC)CC)n1` had a solubility (26 °C) of 1 mM (≈ 226 µg/mL). Compound `Cc1[nH]c(=O)n(C(C)C)c(=O)c1Br` registered a solubility of 8.7 mM (≈ 2150 µg/mL). This lies in the millimolar range. For the setting “pH 7.0, 25 °C”, `Cn1cc(-c2ccccc2)c(=O)c(-c2cccc(C(F)(F)F)c2)c1` gave a solubility of 0.0364 mM (≈ 12 µg/mL). `COC(=O)C1(O)c2ccccc2-c2ccc(Cl)cc21` (centres undefined): for the setting “25 °C”, the solubility was 0.0655 mM (≈ 18 µg/mL). The compound `O=C[C@@H]1C[C@@H]2[C@@H]3[C@H]1[C@@]1(Cl)C(Cl)(Cl)[C@]3(Cl)[C@@]3(Cl)[C@@H]2[C@]31Cl` displayed a solubility of 6.3e-05 mM (≈ 0.024 µg/mL).

`O=C(O)Cc1c[nH]c2ccccc12`: for the setting “20 °C”, the solubility stood at 8.56 mM (≈ 1500 µg/mL). Under “25 °C”, `CCOC(=O)CN(C(=O)CCl)c1c(CC)cccc1CC` returned a solubility of 0.337 mM (≈ 105 µg/mL). As to `O=C(O)c1cc(Cl)c(Cl)cc1Cl`, the solubility (25 °C) is 3.59 mM (≈ 810 µg/mL). Where the note is “20 °C”, `O=C1CCc2cccc3c2N1CC3` had a solubility of 23.1 mM (≈ 4000 µg/mL). Turning to `CCSC(=O)N(CC)CC`, the solubility (25 °C) is 20.3 mM (≈ 3280 µg/mL). This counts as millimolar.

Where the note is “25 °C”, `CCCCS/C(=N\c1cccnc1)SCc1ccc(C(C)(C)C)cc1` registered a solubility of 0.00268 mM (≈ 1 µg/mL). Where the note is “25 °C”, `CCOP(=S)(OCC)SCSP(=S)(OCC)OCC` returned a solubility of 0.0052 mM (≈ 2 µg/mL).

`CCN(CC)c1nc(NC(C)C)nc(OC)n1`: the solubility (pH 3.0, 26 °C) came out at 0.0129 mM (≈ 3.09 µg/mL). For the compound `FC(F)(F)c1nc2c(Cl)c(Cl)ccc2[nH]1`, the solubility (25 °C) amounted to 0.271 mM (≈ 69 µg/mL).

For `CCN(CC)C(=O)CCl`, the solubility (25 °C) was found to be 571 mM (≈ 85500 µg/mL). Turning to `C=C(CC(Cl)(Cl)Cl)c1ccccc1`, for the setting “25 °C”, the solubility was determined as 0.0522 mM (≈ 12.3 µg/mL).

Where the note is “20 °C”, `CN(C)C(=O)SCCCCOc1ccccc1` gave a solubility of 0.118 mM (≈ 30 µg/mL).

`CCCCc1c(C)nc(NCC)nc1OS(=O)(=O)N(C)C`: for the setting “25 °C”, the solubility stood at 0.0695 mM (≈ 22 µg/mL). This lies in the double-digit micromolar range. The compound `Cc1ccc(NC(=O)N(C)C)cc1Cl` gave a solubility (20 °C) of 0.329 mM (≈ 70 µg/mL).

Under “25 °C”, `Cc1ccc(/N=C/N(C)/C=N/c2ccc(C)cc2C)c(C)c1` had a solubility of 0.00341 mM (≈ 1 µg/mL). This lies in the single-digit micromolar range. Consider `CNC(=O)N(C)c1nnc(C(F)(F)F)s1`, for which the solubility (20 °C) was found to be 8.74 mM (≈ 2100 µg/mL). `Cc1cc(N(C)C)nc(Cl)n1` displayed a solubility (20 °C) of 54.8 mM (≈ 9400 µg/mL). Compared with the last compound, the solubility is about 6.3-fold higher. As for `CN(C(=O)COc1nc2ccccc2s1)c1ccccc1`, where the note is “20 °C”, the solubility was 0.0134 mM (≈ 4 µg/mL). In the case of `CN(C)C(O)=Nc1ccc(-n2nc(C(C)(C)C)oc2=O)c(Cl)c1`, the solubility (20 °C) was determined as 0.0472 mM (≈ 16 µg/mL). As to `CCOC(=O)Nc1cccc(OC(=O)Nc2ccccc2)c1`, for the setting “20 °C”, the solubility came out at 0.0233 mM (≈ 7 µg/mL). For the setting “22 °C”, `CCSC(=O)N(CC)C1CCCCC1` registered a solubility of 0.395 mM (≈ 85 µg/mL). Consider `O=C(OCCOc1ccc(Cl)cc1Cl)c1ccccc1`, for which the solubility stood at 0.154 mM (≈ 48 µg/mL). `CCC1COC(Cn2cncn2)(c2ccc(Cl)cc2Cl)O1` (centres undefined) gave a solubility (20 °C) of 0.244 mM (≈ 80 µg/mL). Same read-out and setting: under `CNC(=S)[S-].[Na+]` stands 5590 mM; under `C=CCN(CC=C)C(=O)C(Cl)Cl`, 24 mM (≈ 5000 µg/mL); under `O=CNC(Nc1ccc(Cl)c(Cl)c1)C(Cl)(Cl)Cl` (centres undefined), 0.476 mM (≈ 160 µg/mL).

`O=C(O)COc1cc(Cl)cc(Cl)c1`: the solubility (25 °C) stood at 4.35 mM (≈ 961 µg/mL). This lies in the millimolar range.

Compound `C1CNCCN1.Cl.Cl` registered a solubility (20 °C) of 2580 mM.

For `CCOC(=O)NCCOc1ccc(Oc2ccccc2)cc1`, the solubility (20 °C) was determined as 0.0199 mM (≈ 6 µg/mL). That is a double-digit micromolar value.

Take `COP(=S)(OC)Oc1ccc(Sc2ccc(OP(=S)(OC)OC)cc2)cc1`: where the note is “20 °C”, the solubility stood at 0.000579 mM (≈ 0.27 µg/mL). Regarding `CNC(=O)Oc1ccccc1C1OCCO1`, the solubility (20 °C) was 26.9 mM (≈ 6000 µg/mL). For the compound `CC(Cl)(Cl)[N+](=O)[O-]`, the solubility (20 °C) is 17.4 mM (≈ 2500 µg/mL).

Broadly, the solubility is the concentration that dissolves in the medium under given conditions.
